Assay results as given in the NIST ThermoML archive (doi:10.1016/j.jct.2013.09.006).
Numbers after ± are expanded uncertainties.

How the values were obtained:
[1] = refractive index (Na D-line) (dimensionless); conditions: 101.33 kPa, Liquid, Standard Abbe refractometry
[2] = 101.33 kPa, Liquid; for viscosity: Capillary tube (Ostwald / Ubbelohde) method; for mass density: Vibrating tube method

Compound: CCO [ethanol]
- refractive index ([1]; 298.15 K): 1.3593 ± 0.0014
- refractive index ([1]; 303.15 K): 1.3573 ± 0.0014
- refractive index ([1]; 308.15 K): 1.3556 ± 0.0014
- viscosity ([2]; 298.15 K): 1.09 ± 0.02 mPa·s
- mass density ([2]; 298.15 K): 785.9 ± 1.8 kg/m3
- viscosity ([2]; 303.15 K): 0.95 ± 0.02 mPa·s
- mass density ([2]; 303.15 K): 780.2 ± 1.8 kg/m3
- viscosity ([2]; 308.15 K): 0.87 ± 0.02 mPa·s
- mass density ([2]; 308.15 K): 776.5 ± 1.8 kg/m3
